Like-named read-outs stand apart in the source and are kept apart here. One block for each compound: values may come before it.
Tests used:
B6^Nlrp1b+ BMDMs [1] = assay: Cell death kinetics, Sytox Green on Incucyte; format: cell-based, mouse; settings: for time to reach 30% half-maximal level of pyroptosis: VBP: all tested concentrations (10, 25, 40 μM), 1G244: 10 μM
B6 BMDMs = assay: Cell death kinetics, Sytox Green on Incucyte; format: cell-based
human DPP9 [2] = target: T1, human DPP9 (Homo sapiens, UniProt Q86TI2); assay: biochemical
T1 sequence (Q86TI2 whole entry): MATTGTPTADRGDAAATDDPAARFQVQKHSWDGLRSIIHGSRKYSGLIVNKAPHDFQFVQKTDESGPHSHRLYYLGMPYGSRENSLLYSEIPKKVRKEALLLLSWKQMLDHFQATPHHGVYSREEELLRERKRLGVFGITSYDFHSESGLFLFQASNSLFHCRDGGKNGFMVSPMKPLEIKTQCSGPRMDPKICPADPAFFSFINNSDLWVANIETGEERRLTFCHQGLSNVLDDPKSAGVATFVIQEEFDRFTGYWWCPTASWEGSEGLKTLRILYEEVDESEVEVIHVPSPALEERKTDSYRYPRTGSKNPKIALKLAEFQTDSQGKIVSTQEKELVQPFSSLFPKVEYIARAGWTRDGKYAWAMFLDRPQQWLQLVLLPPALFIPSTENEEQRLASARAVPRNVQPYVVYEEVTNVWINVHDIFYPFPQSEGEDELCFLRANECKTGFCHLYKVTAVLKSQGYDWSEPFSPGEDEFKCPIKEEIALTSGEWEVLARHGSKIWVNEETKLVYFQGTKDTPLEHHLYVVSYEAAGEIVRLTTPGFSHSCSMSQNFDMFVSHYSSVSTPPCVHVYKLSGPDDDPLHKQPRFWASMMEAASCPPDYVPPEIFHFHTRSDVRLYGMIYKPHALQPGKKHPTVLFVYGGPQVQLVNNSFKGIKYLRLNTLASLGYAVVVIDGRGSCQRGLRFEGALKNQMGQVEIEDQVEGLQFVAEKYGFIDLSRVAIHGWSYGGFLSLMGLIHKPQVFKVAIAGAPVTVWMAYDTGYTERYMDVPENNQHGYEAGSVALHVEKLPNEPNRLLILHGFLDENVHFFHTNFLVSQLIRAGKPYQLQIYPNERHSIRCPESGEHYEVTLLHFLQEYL

B6^Nlrp1b+ BMDMs [3] = assay: Caspase-1 cleavage by immunoblot; format: cell-based, mouse; settings: for caspase-1 maturation to p20 (in words): LPS-primed 3 h, 10 or 40 μM, 4, 8 and 24 h; for caspase-1 maturation (in words): LPS-primed, 4 and 8 h
human DPP9 [4] = target: T1, human DPP9; settings: for Inhibitor in lysate / Inhibitor in medium: mouse, 15 min, 10 µM
[5] = system: LPS-primed B6^Nlrp1b+ BMDMs; assay: IL-1β and IL-18 secretion, Luminex multiplex assay; format: cell-based, mouse
B6^Nlrp1b+ASC^−/− BMDMs [6] = assay: Cell death kinetics, Sytox Green on Incucyte; format: cell-based, mouse; settings: 10 μM
[7] = system: B6^Nlrp1b+C1^−/−C11^−/− macrophages; assay: Caspase-8 cleavage by immunoblot; format: cell-based, mouse; settings: 10 μM; 4 h
[8] = system: B6^Nlrp1b+GSDMD^−/− macrophages; assay: Apoptosis induction, confocal bright-field imaging; format: cell-based, mouse; settings: 10 μM; 4 h
[9] = system: B6^Nlrp1b+C1^−/−C11^−/−ASC^−/− macrophages; assay: Cell death morphology, confocal bright-field imaging; format: cell-based, mouse; settings: 10 μM; 4 h
B6^Nlrp1b+ASC^−/− BMDMs [10] = assay: Caspase-1 cleavage by immunoblot; format: cell-based, mouse; settings: 10 μM; 8 h
B6^Nlrp1b+ BMDMs [11] = assay: ASC speck formation, confocal imaging; format: cell-based, mouse; settings: 10 μM; 4 or 8 h
Protocol: Cells were stained with anti-ASC (1:200) antibody, followed by secondary anti-rabbit DyLight 594 (1:1,000). Then, slides were mounted on ProLong Gold Antifade reagent with DAPI for analysis. For quantification of ASC specks, analyses were performed on a spinning-disk system (Zeiss), using an observer Z.1 microscope equipped with a Yokogawa disk CSU-X1. Fluorescent images were acquired with the use of a Plan-Apochromat 40×/1.4 oil DIC III objective and a Rolera Em-C2 Camera. Tile scanning was performed combining 4 × 5 images for the final mosaic (total area 7.42 mm × 5.91 mm). The maximum intensity projections of the final mosaic were analysed on Volocity 6.3.1 (PerkinElmer) software for the number of cells containing ASC specks. Seven mosaics were quantified per experimental condition from each biological repeat and the data from all repeats were combined. One-way ANOVA with Tukey’s multiple comparisons analysis was performed in GraphPad Prism 6.0 software.

J774.A1 cells = assay: Cell death kinetics, Sytox Green on Incucyte; settings: 10 μM and 25 μM
Human DPP2 [12] = target: T2, Human DPP2 (Homo sapiens, UniProt Q9UHL4)
Protocol: (§1) Lys-Ala-paranitroanilide (Lys-Ala-pNA) was used as substrate at a final concentration of 1 mM.

Human DPP2 [13] = target: T2, Human DPP2; assay: biochemical
Protocol: as §1

Human recombinant FAP = target: T3, Human recombinant FAP (Homo sapiens, UniProt Q12884)
T3 sequence (Q12884 26-760 limits assumed): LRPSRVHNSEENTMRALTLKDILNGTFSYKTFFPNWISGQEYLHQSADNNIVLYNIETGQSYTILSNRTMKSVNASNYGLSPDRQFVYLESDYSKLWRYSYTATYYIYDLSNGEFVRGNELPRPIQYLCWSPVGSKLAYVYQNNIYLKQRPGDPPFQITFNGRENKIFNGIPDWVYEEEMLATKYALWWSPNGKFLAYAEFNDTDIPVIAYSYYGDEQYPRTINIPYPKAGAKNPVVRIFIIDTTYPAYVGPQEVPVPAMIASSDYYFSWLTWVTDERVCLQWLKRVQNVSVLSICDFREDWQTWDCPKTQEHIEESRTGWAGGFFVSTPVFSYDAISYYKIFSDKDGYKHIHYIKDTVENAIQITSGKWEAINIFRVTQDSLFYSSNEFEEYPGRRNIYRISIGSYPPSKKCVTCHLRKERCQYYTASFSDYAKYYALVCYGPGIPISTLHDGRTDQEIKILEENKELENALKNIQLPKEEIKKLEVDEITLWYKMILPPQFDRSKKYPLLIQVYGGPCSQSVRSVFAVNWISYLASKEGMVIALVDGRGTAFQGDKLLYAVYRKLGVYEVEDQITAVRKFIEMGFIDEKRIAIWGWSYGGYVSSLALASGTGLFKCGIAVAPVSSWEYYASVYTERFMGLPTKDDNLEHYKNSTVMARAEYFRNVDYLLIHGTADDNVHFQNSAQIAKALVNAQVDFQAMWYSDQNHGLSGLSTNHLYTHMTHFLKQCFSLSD
Protocol: FAP and PREP were assayed in buffer containing 0.1 M Tris–HCl (pH 8), 300 mM NaF, 1 mM EDTA, 50 mM salicylic acid, and 5 mM DTT.

[14] = Ic50, calibration curve in cell lysate
[15] = Ic50, calibration curve in medium
[16] = calibration curve in cell lysate
[17] = cell lysate of BMDMs that received 10 µM for 15 min
[18] = medium of BMDMs that received 10 µM for 15 min

IC50 (human DPP9 [2]; [14]): 1600 ± 100 nM | IC50 (human DPP9 [2]; [15]): 1700 ± 80 nM | Slope factor (human DPP9 [4]; [16]): 1.4 ± 0.2 | Slope factor (human DPP9 [4]; calibration curve in medium): 1.33 ± 0.08 | Inhibition (human DPP9 [4]; [17]): 2.7% | Inhibition (human DPP9 [4]; [18]): 71% | Inhibitor in lysate (human DPP9 [4]): 0.3 µM | Inhibitor in medium (human DPP9 [4]): 3.2 µM | attenuation in ability to inhibit DPP9 activity in vitro (human DPP9 [4]; relative to VBP): more than 100 fold
Compound: CC(C)[C@@H]1[NH2+][B-](O)(O)[C@@H]2CCCN2C1=O [cVBP]
cell death induction (in words) (B6^Nlrp1b+ BMDMs [1]; 10, 25 and 40 μM): induced significant pyroptosis | caspase-1 maturation to p20 (in words) (B6^Nlrp1b+ BMDMs [3]): caspase-1 p20 cleavage was detected only in lysates of macrophages that had been treated with the highest concentration (40 μM) | secretion of IL-1β and IL-18 (in words) ([5]; 10 μM): less efficient in eliciting extracellular secretion of IL-1β and IL-18 | secretion of IL-1β and IL-18 (in words) ([5]; 40 μM): triggered substantial extracellular release of IL-1β and IL-18 | cell death induction (in words) (B6 BMDMs; 10, 25 and 40 μM): failed to induce cell death

Slope factor (Human DPP2 [12]; [16]): 1.3 ± 0.3 | Slope factor (Human DPP2 [12]; calibration curve in medium): 1.4 ± 0.1 | Inhibition (Human DPP2 [12]; [17]): 100% | Inhibition (Human DPP2 [12]; [18]): 100% | Inhibitor in lysate (Human DPP2 [12]; mouse, 15 min, 10 µM): 120/66 | Inhibitor in medium (Human DPP2 [12]; mouse, 15 min, 10 µM): 52/45 | IC50 (Human DPP2 [13]; [14]): 6 ± 1 nM | IC50 (Human DPP2 [13]; [15]): 9.8 ± 0.6 nM
Compound: N[C@@H](CCNCc1ccc(Cl)cc1)C(=O)N1CCCCC1 [UAMC39]
cell death induction (in words) (B6^Nlrp1b+ BMDMs [1]; 10, 25 and 40 μM): none of the listed inhibitors triggered a cell death response | cell death induction (in words) (B6 BMDMs; 10, 25 and 40 μM): none of the listed inhibitors triggered a cell death response

caspase-1 maturation to p20 (in words) (B6^Nlrp1b+ BMDMs [3]): failed to elicit caspase-1 maturation
Compound: CC(=O)N[C@H](C(=O)N1CCC[C@H]1B(O)O)C(C)C [aVBP]
cell death induction (in words) (B6^Nlrp1b+ BMDMs [1]; 10, 25 and 40 μM): failed to induce cytotoxicity | secretion of IL-1β and IL-18 (in words) ([5]; 10 or 40 μM, 4, 8 or 24 h): failed to induce cytokine secretion | cell death induction (in words) (B6 BMDMs; 10, 25 and 40 μM): failed to induce cytotoxicity

IC50 (human DPP9 [2]; [14]): 10 ± 0.6 nM | IC50 (human DPP9 [2]; [15]): 15.3 ± 0.8 nM | caspase-1 maturation (in words) (B6^Nlrp1b+ASC^−/− BMDMs [10]): blunted | caspase-1 maturation (in words) (B6^Nlrp1b+ BMDMs [3]; 1 μM): triggered weak caspase-1 processing | Slope factor (human DPP9 [4]; [16]): 1.30 ± 0.09 | Slope factor (human DPP9 [4]; calibration curve in medium): 1.39 ± 0.09 | Inhibition (human DPP9 [4]; [17]): 98% | Inhibition (human DPP9 [4]; [18]): 100% | Inhibitor in lysate (human DPP9 [4]): 0.06 µM | Inhibitor in medium (human DPP9 [4]): 1.5 µM
Compound: N[C@@H](CC(=O)N1CCN(C(c2ccc(F)cc2)c2ccc(F)cc2)CC1)C(=O)N1Cc2ccccc2C1 [1G244]
reduction of maximal level of pyroptosis compared with ASC-sufficient B6^Nlrp1b+ macrophages (B6^Nlrp1b+ASC^−/− BMDMs [6]): about 50% | apoptosis induction (in words) [8]: potently induce apoptosis | cell death (in words) [9]: remained alive and were fully rescued from apoptosis and pyroptosis induction | cell death induction (in words) (B6^Nlrp1b+ BMDMs [1]; 0.1 μM): failed to trigger a cytotoxic response | cell death induction (in words) (B6^Nlrp1b+ BMDMs [1]; 1 μM): induced a reduced level of pyroptosis | plateau of pyroptosis (B6^Nlrp1b+ BMDMs [1]; 10 μM, by 6 h posttreatment): about 60% | time to reach 30% half-maximal level of pyroptosis (B6^Nlrp1b+ BMDMs [1]): ≤ 2 h | ASC speck formation (in words) (B6^Nlrp1b+ BMDMs [11]): marked ASC speck formation | caspase-1 maturation to p20 (in words) (B6^Nlrp1b+ BMDMs [3]): efficiently promoted caspase-1 auto-maturation | secretion of IL-1β and IL-18 (in words) ([5]; 10 or 40 μM, 4, 8 or 24 h): potently triggered secretion of IL-1β and IL-18 | time at which pyroptosis commences (B6 BMDMs; 10 μM or 25 μM): around 10 h | pyroptosis, share of the cell population (B6 BMDMs; by 24 h, 10 μM or 25 μM): ~20% | pyroptosis level (B6 BMDMs; by 24 h, 40 μM): 40%

Second part, the compound before the results:

Compound: N#C[C@@H]1CCCN1C(=O)[C@@H]1CCCN1C(=O)CCCc1ccccc1 [KYP-2047]
cell death induction (in words) (B6^Nlrp1b+ BMDMs [1]; 10, 25 and 40 μM): none of the listed inhibitors triggered a cell death response | cell death induction (in words) (B6 BMDMs; 10, 25 and 40 μM): none of the listed inhibitors triggered a cell death response

Compound: CC(C)[C@H](N)C(=O)N1CCC[C@H]1B(O)O [VBP, Val-boroPro]
reduction of maximal level of pyroptosis compared with ASC-sufficient B6^Nlrp1b+ macrophages (B6^Nlrp1b+ASC^−/− BMDMs [6]): about 50% | caspase-8 cleavage (in words) [7]: marked ASC-dependent caspase-8 cleavage | apoptosis induction (in words) [8]: potently induce apoptosis | cell death (in words) [9]: remained alive and were fully rescued from apoptosis and pyroptosis induction | cell death induction (in words) (B6^Nlrp1b+ BMDMs [1]; 0.1 μM): failed to trigger a cytotoxic response | cell death induction (in words) (B6^Nlrp1b+ BMDMs [1]; 1 μM): sufficient to induce robust pyroptosis | time to reach 30% half-maximal level of pyroptosis (B6^Nlrp1b+ BMDMs [1]): ≤ 3 h | time to reach half-maximal induction of pyroptosis (35% cell death in the total cell population) (B6^Nlrp1b+ BMDMs [1]; rebuttal letter, on Figure 1a): about 3 hours | caspase-1 maturation (in words) (B6^Nlrp1b+ASC^−/− BMDMs [10]): blunted | ASC speck formation (in words) (B6^Nlrp1b+ BMDMs [11]): marked ASC speck formation | cytotoxic response (in words) (J774.A1 cells): elicited a swift and robust cytotoxic response | caspase-1 maturation to p20 (in words) (B6^Nlrp1b+ BMDMs [3]): triggered marked caspase-1 cleavage | caspase-1 maturation (in words) (B6^Nlrp1b+ BMDMs [3]; 0.1 μM): failed to induce caspase-1 auto-cleavage | caspase-1 maturation (in words) (B6^Nlrp1b+ BMDMs [3]; 1 μM): sufficient to trigger caspase-1 maturation | secretion of IL-1β and IL-18 (in words) ([5]; 10 or 40 μM, 4, 8 or 24 h): potently released IL-1β | time required to reach 30% cytotoxicity (B6 BMDMs; 10, 25 and 40 μM): about 8 h | level of pyroptosis (SG-positive cells relative to Triton X100) (B6 BMDMs; by 6 h, 10, 25 and 40 μM): ~20% | plateau cytotoxicity (B6 BMDMs; by 24 h, 10, 25 and 40 μM): approximately 50% | time to reach the same level of cell death induction (35%) (B6 BMDMs; rebuttal letter, on Figure 1a): approximately 9 h

Compound: N#C[C@@H]1CC(F)(F)CN1C(=O)CNC(=O)c1ccnc2ccccc12 [UAMC1110]
Slope factor (Human recombinant FAP; [16]): 1.21 ± 0.07 | Slope factor (Human recombinant FAP; calibration curve in medium): 1.2 ± 0.1 | Inhibition (Human recombinant FAP; [17]): 100% | Inhibition (Human recombinant FAP; [18]): 100% | Inhibitor in lysate (Human recombinant FAP; mouse, 15 min, 10 µM): 0.4 µM | Inhibitor in medium (Human recombinant FAP; mouse, 15 min, 10 µM): 8.8 µM | cell death induction (in words) (B6^Nlrp1b+ BMDMs [1]; 10, 25 and 40 μM): none of the listed inhibitors triggered a cell death response | cell death induction (in words) (B6 BMDMs; 10, 25 and 40 μM): none of the listed inhibitors triggered a cell death response

Compound: N[C@@H](CC(=O)N1CCn2c(nnc2C(F)(F)F)C1)Cc1cc(F)c(F)cc1F [sitagliptin]
cell death induction (in words) (B6^Nlrp1b+ BMDMs [1]; 10, 25 and 40 μM): none of the listed inhibitors triggered a cell death response | cell death induction (in words) (B6 BMDMs; 10, 25 and 40 μM): none of the listed inhibitors triggered a cell death response

Source: article PMC6362307, “DPP8/DPP9 inhibition elicits canonical Nlrp1b inflammasome hallmarks in murine macrophages” (Life Science Alliance, 2019)
